From ChEMBL document CHEMBL5537130, “Structure-based design of potent FABP4 inhibitors with high selectivity against FABP3” (Eur J Med Chem, 2024)

Assays:
[1] = target: Fatty acid-binding protein, adipocyte (Homo sapiens, UniProt P15090)
Description: Displacement of 1,8-ANS from N-terminal 6His-tagged full length FABP4 (unknown origin) expressed in Escherichia coli ER2566 assessed as inhibition constant preincubated with compound for 10 mins followed by 1,8-ANS addition and measured after 3 mins by fluorescence based analysis

[2] = target: Fatty acid-binding protein, heart (Homo sapiens, UniProt P05413)
Description: Displacement of 1,8-ANS from N-terminal 6His-tagged full length FABP3 (unknown origin) expressed in Escherichia coli ER2566 assessed as inhibition constant preincubated with compound for 10 mins followed by 1,8-ANS addition and measured after 3 mins by fluorescence based analysis

FABP3 versus FABP4 = test: in vitro; settings: probe 1,8-ANS
Description: Selectivity index, ratio of Ki for displacement of 1,8-ANS from N-terminal 6His-tagged full length FABP3 (unknown origin) expressed in Escherichia coli ER2566 to Ki for displacement of 1,8-ANS from N-terminal 6His-tagged full length FABP4 (unknown origin) expressed in Escherichia coli ER2566

in vitro [3] = settings: human, liver microsomes
Description: Metabolic stability in human liver microsomes assessed as half life at 1 uM preincubated with compound for 10 mins followed by NADPH addition and measured upto 60 mins by LC-MS/MS analysis

in vitro [4] = settings: mouse, liver microsomes
Description: Metabolic stability in mouse liver microsomes assessed as half life at 1 uM preincubated with compound for 10 mins followed by NADPH addition and measured upto 60 mins by LC-MS/MS analysis

in vitro [5] = settings: human, liver microsomes; remark: listed apart in the source
Description: Metabolic stability in human liver microsomes assessed as metabolic bioavailability at 1 uM preincubated with compound for 10 mins followed by NADPH addition and measured upto 60 mins by LC-MS/MS analysis

in vitro [6] = settings: mouse, liver microsomes; remark: listed apart in the source
Description: Metabolic stability in mouse liver microsomes assessed as metabolic bioavailability at 1 uM preincubated with compound for 10 mins followed by NADPH addition and measured upto 60 mins by LC-MS/MS analysis

Fatty acid-binding protein, heart, sequence (P05413 whole entry): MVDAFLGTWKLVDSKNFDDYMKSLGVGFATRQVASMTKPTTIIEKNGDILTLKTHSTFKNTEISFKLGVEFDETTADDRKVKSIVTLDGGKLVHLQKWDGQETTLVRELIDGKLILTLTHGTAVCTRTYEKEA
Fatty acid-binding protein, adipocyte, sequence (P15090 whole entry): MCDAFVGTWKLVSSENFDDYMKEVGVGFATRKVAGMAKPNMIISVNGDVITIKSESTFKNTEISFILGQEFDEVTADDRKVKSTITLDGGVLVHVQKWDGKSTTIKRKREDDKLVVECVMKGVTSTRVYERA

Compound | Ki [2] | also measured
COc1ccc(Nc2cccc(Cl)c2-c2ccccc2)c(C(=O)O)c1 | 2.19 µM | Ki [1]: 0.359 µM; selectivity ratio (FABP3 versus FABP4): 6
Cc1cccc(Nc2cccc(Cl)c2-c2ccc3c(c2)CCO3)c1C(=O)O | 15.4 µM | –
COc1cccc(Nc2cccc(Cl)c2-c2ccccc2)c1C(=O)O | > 5 µM | –
Cc1ccc(Nc2cccc(Cl)c2-c2ccccc2)c(C(=O)O)c1 | 7.46 µM | –
O=C(O)c1cc(F)ccc1Nc1cccc(Cl)c1-c1ccccc1 | 0.37 µM | –
O=C(O)c1ccccc1Nc1cccc(Cl)c1-c1ccccc1 | – | half-life at 1 h, 1 µM (in vitro [3]): 33.5 min; half-life at 1 h, 1 µM (in vitro [4]): 31.4 min; Fh at 1 h, 1 µM (in vitro [5]): 24%; Fh at 1 h, 1 µM (in vitro [6]): 39.9%
O=C(O)c1cc(Cl)ccc1Nc1cccc(Cl)c1-c1ccccc1 | 1.29 µM | –
Cc1c(F)ccc(Nc2cccc(Cl)c2-c2ccccc2)c1C(=O)O | 4 µM | –
O=C(O)c1c(Cl)cccc1Nc1cccc(Cl)c1-c1ccccc1 | 5.18 µM | –
Cc1cccc(Nc2cccc(Cl)c2-c2ccccc2)c1C(=O)O | 15 µM | –
Cc1c(F)ccc(Nc2cccc(Cl)c2-c2ccc3c(c2)CCO3)c1C(=O)O | 7.51 µM | –
